Publication PMC4230905, “(S)-3-hydroxyacyl-CoA dehydrogenase/enoyl-CoA hydratase (FadB’) from fatty acid degradation operon of Ralstonia eutropha H16” (AMB Express, 2014)
Each block holds one molecule with its values, some of them ahead of it.

What was measured:
[1] = target: T1, FadB' ((S)-3-hydroxyacyl-CoA dehydrogenase/enoyl-CoA hydratase, H16_A0461; FadB'Re) (Cupriavidus necator, UniProt Q0KEG0); assay: spectrophotometric NADH oxidation at […] nm; assay type: biochemical; conditions: read-out: % inhibition at 0.1 mM (3-hydroxyacyl-CoA dehydrogenase activity)
T1 construct: N-terminal His-tag (pCOLADuet-1::3HAD), expressed in E. coli BL21; monomer (87 kDa by gel filtration); N-terminal 3HCDH and C-terminal crotonase-like domain
T1 sequence (Q0KEG0 1-807): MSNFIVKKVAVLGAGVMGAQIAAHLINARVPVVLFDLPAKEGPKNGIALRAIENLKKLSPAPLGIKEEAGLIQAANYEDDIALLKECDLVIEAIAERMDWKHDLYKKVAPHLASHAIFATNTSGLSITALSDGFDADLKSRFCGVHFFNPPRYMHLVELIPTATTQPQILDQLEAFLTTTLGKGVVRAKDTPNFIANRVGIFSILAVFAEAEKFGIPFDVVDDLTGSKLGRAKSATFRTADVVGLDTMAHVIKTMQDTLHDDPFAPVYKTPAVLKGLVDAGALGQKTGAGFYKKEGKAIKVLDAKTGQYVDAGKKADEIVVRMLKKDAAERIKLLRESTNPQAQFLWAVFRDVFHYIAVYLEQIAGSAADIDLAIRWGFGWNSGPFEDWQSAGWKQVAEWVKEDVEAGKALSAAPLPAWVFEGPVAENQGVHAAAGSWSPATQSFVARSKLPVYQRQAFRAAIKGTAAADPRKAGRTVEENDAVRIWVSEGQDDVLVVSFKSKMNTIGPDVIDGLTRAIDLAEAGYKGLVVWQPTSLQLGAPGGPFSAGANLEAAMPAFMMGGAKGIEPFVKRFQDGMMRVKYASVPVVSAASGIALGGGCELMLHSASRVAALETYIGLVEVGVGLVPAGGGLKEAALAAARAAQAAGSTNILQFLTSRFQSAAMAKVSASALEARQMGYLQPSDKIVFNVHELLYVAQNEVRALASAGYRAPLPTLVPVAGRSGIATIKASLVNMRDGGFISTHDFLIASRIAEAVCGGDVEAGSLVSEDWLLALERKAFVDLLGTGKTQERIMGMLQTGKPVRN

[2] = target: T1, FadB' ((S)-3-hydroxyacyl-CoA dehydrogenase/enoyl-CoA hydratase, H16_A0461; FadB'Re); assay: coupled assay, acetoacetyl-CoA-Mg2+ complex formation at […] nm; assay type: biochemical; conditions: read-out: % inhibition at 0.1 mM (enoyl-CoA hydratase activity)
[3] = substrate: CC(=O)CC(=O)SCCNC(=O)CCNC(=O)[C@H](O)C(C)(C)COP(=O)(O)OP(=O)(O)OC[C@H]1O[C@@H](n2cnc3c(N)ncnc32)[C@H](O)[C@@H]1OP(=O)(O)O; assay: purified protein; assay type: biochemical, Cupriavidus necator; conditions: 3-hydroxyacyl-CoA dehydrogenase activity (reduction direction), 0.2 mM NADH, 100 mM Tris-HCl pH 7, 30 °C, no acetyl-CoA added

inhibition at 100 µM [1]: 20%
inhibition at 100 µM [2]: 30%
Molecule: CC(C)(COP(=O)(O)OP(=O)(O)OC[C@H]1O[C@@H](n2cnc3c(N)ncnc32)[C@H](O)[C@@H]1OP(=O)(O)O)[C@@H](O)C(=O)NCCC(=O)NCCS [CoA]

inhibition at 100 µM [1]: ~50%
inhibition at 100 µM [2]: 70%
Molecule: CC(=O)SCCNC(=O)CCNC(=O)[C@H](O)C(C)(C)COP(=O)(O)OP(=O)(O)OC[C@H]1O[C@@H](n2cnc3c(N)ncnc32)[C@H](O)[C@@H]1OP(=O)(O)O [acetyl-CoA]

inhibition at 100 µM [2]: ~60%
Molecule: CCC(=O)SCCNC(=O)CCNC(=O)[C@H](O)C(C)(C)COP(=O)(O)OP(=O)(O)OC[C@H]1O[C@@H](n2cnc3c(N)ncnc32)[C@H](O)[C@@H]1OP(=O)(O)O [propionyl-CoA]

B1: FadB' ((S)-3-hydroxyacyl-CoA dehydrogenase/enoyl-CoA hydratase, H16_A0461; FadB'Re) (Cupriavidus necator H16) (protein)
chain: T1 sequence (Q0KEG0 1-807)
notes: N-terminal His-tag (pCOLADuet-1::3HAD), expressed in E. coli BL21; monomer (87 kDa by gel filtration); N-terminal 3HCDH and C-terminal crotonase-like domain
Km [3]: 48 µM
